Measurements: publication PMC6130543, “Immunomodulatory activities of isolated compounds from the root-bark of Cussonia arborea” (Pharmaceutical Biology, 2017)
In brackets after ≈: the same amount, converted by molar mass. Read-outs that look alike come from different tables or passages of the source.

Columns and labels:
NIH-3T3 fibroblast cells = assay: MTT cytotoxicity assay; format: cell-based; details: MTT, 48 h; three doses (1, 10 and 100 µg/mL); mean ± SD of three determinations
Experimental: (§1) Cytotoxicity of test compounds on NIH-3T3 fibroblast cells (ATCC, Manassas, VA, USA) was evaluated by using the standard MTT colorimetric assay. Briefly 100 μL of 5 × 10^4 cells/mL in Dulbacco’s modified eagles medium (DMEM) supplemented with 10% foetal bovine serum (FBS) were plated into 96-wells flat bottom plate and incubated overnight at 37 °C in 5% CO2. Three different concentrations of test compound (1, 10 and 100 µg/mL) were added to the plate in triplicates and incubated for 48 h. 0.5 mg/mL MTT (50 µL) was added to each well, the plate was then further incubated for 4 h. MTT was aspirated and 100 µL of dimethyl sulfoxide (DMSO) was then added to each well. The extent of MTT reduction to formazan within cells was calculated by measuring the absorbance at 540 nm, using spectrophotometer (Spectra Max plus, Molecular Devices, CA, USA). The cytotoxic activity was recorded as concentration causing 50% growth inhibition (IC50) for 3T3 cells. Cycloheximide was used as standard drug.

[1] = tested on: serum opsonized zymosan activated whole blood phagocytes (intracellular ROS production); assay: Oxidative burst assay (luminol-enhanced chemiluminescence); format: cell-based, human; details: for inhibition of production of ROS (in words): zymosan activated whole blood phagocytes, 1-100 µg/mL; for IC50: read-out: ROS inhibition (IC50± SD µg/mL)
[2] = tested on: phytoheamagglutinin (PHA) activated T-cells; assay: 3H-Thymidine incorporated T-cell proliferation assay; format: cell-based, human; details: for inhibition of T-cell proliferation (in words): PHA activated T-cells, 1-100 µg/mL; for IC50: read-out: T-cell proliferation inhibition (IC50± SD µg/mL)
Experimental: Lymphocytes were isolated from human heparinized blood. Briefly 10 mL of blood was aseptically collected in heparin containing tube from healthy volunteer. Blood was then mixed with equal volume (1:1) of incomplete RPMI (Roswell Park Memorial Institute) media in 50 mL sterile falcon tube. Lymphocyte separation media (LSM) (5 mL) was added into two sterile 15 mL falcon tubes and 10 mL of the mixture containing blood and RPMI was gently layered on LSM in each tube. Tubes were then centrifuged at 400 g for 20 min at room temperature. The buffy layer appeared at the interface of LSM and plasma was carefully collected and washed at 4 °C for 10 min at 300 g. The supernatant was discarded and pellet containing peripheral blood mononuclear cells (PBMNCs) was collected. Cell viability and counting was performed using trypan blue dye. ^3H-Thymidine incorporated T-cell proliferation assay was performed as described by […] et al. ([2009]). […] After that 50 μL of isolated PBMNCs were added at a concentration of (2 × 10^6 cell/mL). Cells were then stimulated by adding 50 μL of 7.5 μg/mL […]) which acts as mitogen only for T-cells among other PBMNCs. […] The wells received 50 μL cells and 150 μL of 5% FCS/RPMI served as negative control where as positive control contains 50 μL cells, 50 μL of PHA-L and 100 μL of 5% FCS/RPMI. […] Plates were then incubated for 72 h at 37 °C in 5% CO2 incubator. After 72 h, cultures were pulsed with 25 μL of 0.5 μCi/well ^3H-thymidine [Hartmann Analytic, Braunschweig, Germany], and plates were further incubated for 18 h. After incubation cells were harvested using a glass fibre filter and cell harvester [Inotech, Dottikon, Switzerland]. The level of the ^3H-thymidine incorporated into the cells was measured by a LS65000 liquid scintillation counter [Beckman coulter, Fullerton, CA, USA]. Results were expressed as mean count per minutes (CPM). The 50% inhibitory concentration (IC50) values were calculated for all tested compounds.

MTT cytotoxicity assay = format: cell-based; details: mouse
Experimental: as §1

[3] = tested on: whole blood lymphocyte proliferation; design: method as in Magee et al. [2002]; details: similar work; ref Magee et al. [2002]; cited from earlier work
[4] = zymosan activated human whole blood phagocytes, luminol probe, three doses (1, 10 and 100 µg/mL), mean ± SD of three determinations
[5] = T-cell, PHA-L activated human T-cells, 72 h + 18 h 3H-thymidine, three doses (1, 10 and 100 µg/mL), mean ± SD of three determinations
[6] = MTT, 48 h, three doses (1, 10 and 100 µg/mL), mean ± SD of three determinations, read-out: Cytotoxicity on NIH 3T3-cells (IC50± SD µg/mL)

CC[C@H](/C=C/[C@@H](C)[C@H]1CC[C@H]2[C@@H]3CC=C4C[C@@H](O[C@@H]5O[C@H](CO)[C@@H](O)[C@H](O)[C@H]5O)CC[C@]4(C)[C@H]3CC[C@]12C)C(C)C [Compound 4, 3-O-β-D-glucopyranosyl stigmasterol]
Cytotoxicity on NIH 3T3-cells (IC50± SD µg/mL) (NIH-3T3 fibroblast cells): >100 µg/mL | ROS inhibition (IC50± SD µg/mL) [1, 4]: >100 µg/mL | inhibition of production of ROS (in words) [1]: did not inhibit | inhibition of T-cell proliferation (in words) [2]: no inhibition | T-cell proliferation inhibition (IC50± SD µg/mL) ([2]; PHA-L activated human T-cells, 72 h + 18 h 3H-thymidine, three doses (1, 10 and 100 µg/mL), mean ± SD of three determinations): >100 µg/mL

CC1(C)CC[C@]2(C(=O)O)CC[C@]3(C)C(=CC[C@@H]4[C@@]5(C)CC[C@H](O)[C@@](C)(CO)[C@@H]5CC[C@]43C)[C@@H]2C1 [Compound 1, 3, 23-dihydroxy-12-oleanen-28-oic acid]
IC50 at 48 h (MTT cytotoxicity assay): > 100 µg/mL | IC50 [1, 4]: 24.4 ± 4.3 µg/mL | inhibition of T-cell proliferation (in words) [2]: no inhibition | IC50 [2, 5]: > 100 µg/mL

C[C@]12C=CC(=O)C=C1CC[C@@H]1[C@@H]2[C@@H](O)C[C@@]2(C)[C@H]1CC[C@]2(O)C(=O)CO [Prednisolone, prednisolone, reference compound]
IC50 of prednisolone (lymphocyte proliferation) [3]: 0.0388 mg/L | inhibition at 0.62 µg/mL ([2]; Homo sapiens, T-cell, at lowest tested concentration (0.62 µg/mL), PHA activator): 64.3 ± 2% | IC50 [2, 5]: < 0.62 µg/mL

CC1(C)CC[C@]2(C(=O)O)CC[C@]3(C)C(=CC[C@@H]4[C@@]5(C)CC[C@H](O)C(C)(C)[C@@H]5CC[C@]43C)[C@@H]2C1 [Compound 2, 3β-hydroxylolean-12-en-28-oic]
IC50 at 48 h (MTT cytotoxicity assay; NIH-3T3 fibroblast cells, MTT, 48 h, three doses (1, 10 and 100 µg/mL), mean ± SD of three determinations, read-out: Cytotoxicity on NIH 3T3-cells (IC50± SD µg/mL)): > 100 µg/mL | IC50 [1, 4]: 37.5 ± 0.1 µg/mL | IC50 [2, 5]: 12.6 ± 0.4 µg/mL

C[C@@H]1C[C@@H]([C@H](O)CC2CC(=O)NC(=O)C2)C(=O)[C@@H](C)C1 [Cyclohexamide, Cycloheximide, reference compound]
IC50 at 48 h (MTT cytotoxicity assay; [6]): 0.13 ± 0.02 µg/mL (≈ 0.462 µM)

CC(C)Cc1ccc(C(C)C(=O)O)cc1 (centres unmarked) [Ibuprofen, reference compound]
IC50 [1, 4]: 11.2 ± 1.9 µg/mL

CC[C@H](/C=C/[C@@H](C)[C@H]1CC[C@H]2[C@@H]3CC=C4C[C@@H](O)CC[C@]4(C)[C@H]3CC[C@]12C)C(C)C [Compound 3, stigmasterol]
IC50 (MTT cytotoxicity assay; [6]): > 100 µg/mL | IC50 [1, 4]: > 100 µg/mL | inhibition of production of ROS (in words) [1]: did not inhibit
